Laboratory results as given in patent US8299052B2, “Pharmaceutical compositions and methods for improved bacterial eradication” (Shionogi Inc., priority 2006, dated 2012).
Values after ≈ are worked out from the molar mass of the structure shown. Read-outs that look alike come from different tables or passages of the source. Marks after values point to notes of the source that are not given here.

Assays:
Streptococcus pyogenes [1] = experiment: Daily T>MIC and Total T>MIC calculated from pharmacokinetic model (WinNonlin) plasma profiles
Description: The Daily T>MIC must also be calculated for each different regimen, and at the relevant MIC. This information was not presented in any of the articles and so it was calculated by Applicants. The Daily T>MIC is calculated for each regimen by creating a plasma profile from pharmacokinetic data published in the literature. Prior to creating the plasma profile a pharmacokinetic model is developed from plasma profiles from one or more doses reported in the literature. […] The models are industry standard compartmental models, generated with WinNonlin, a common program used in the pharmaceutical industry for pharmacokinetic analysis and modeling. Once the Daily T>MIC for each regimen has been calculated, the Total T>MIC is calculated by multiplying the Daily T>MIC by the Duration of Therapy (Days Tx in the table). Thus a composite parameter, Total T>MIC, is constructed that includes both factors relevant to eradication of Streptococcus pyogenes by a given regimen. The equation can then be used to determine the Total T>MIC required to achieve eradication rates ≧85% (or any other desired eradication rate).

Streptococcus pyogenes [2] = experiment: MIC-90 of penicillin VK for Streptococcus pyogenes; assay type: cell-based; settings: where study did not report MIC, assumed equal to MIC determined in Applicants' Phase III trial
Text: The information in Table 1 was collected from several studies published in the literature. Information such as drug, regimen, Days Tx and Eradication can be taken directly from the literature articles. Information such as the MIC will often have been determined as part of the study and may be reported in the article, but in many cases it may not have been determined or reported.

Streptococcus pyogenes [3] = settings: cited from earlier work
Streptococcus pyogenes [4] = settings: Omnicef label, Tack et al, AAC 1998; cited from earlier work

Daily T > MIC (Streptococcus pyogenes [1]; 250 QID, MIC-90 0.015): 55.30%
Daily T > MIC (Streptococcus pyogenes [1]; 250 QID, MIC-90 0.03): 46.40%
Daily T > MIC (Streptococcus pyogenes [1]; 250 TID, MIC-90 0.015): 39.29%
Daily T > MIC (Streptococcus pyogenes [1]; 500 TID, MIC-90 0.015): 48.10%
Daily T > MIC (Streptococcus pyogenes [1]; 600 TID, MIC-90 0.015): 49.80%
Daily T > MIC (Streptococcus pyogenes [1]; 750 QD, MIC-90 0.015): 17.30%
Daily T > MIC (Streptococcus pyogenes [1]; 800 BID, MIC-90 0.015): 35.00%
MIC90 (Streptococcus pyogenes [2]): 0.015 µg/mL (≈ 0.0428 µM)
Structure (SMILES): CC1(C)S[C@@H]2[C@H](NC(=O)COc3ccccc3)C(=O)N2[C@H]1C(=O)O [Pen VK, penicillin VK]
% Erad (Streptococcus pyogenes [3]; 250 QID, Days Tx 10, MIC-90 0.03, Omnicef label, Tack et al, AAC 1998): 82%
% Erad (Streptococcus pyogenes [3]; 250 QID, Days Tx 10, McCarty 1993): 100%
% Erad (Streptococcus pyogenes [3]; 250 QID, Days Tx 10, Mullen 992): 85.5%
% Erad (Streptococcus pyogenes [3]; 250 TID, Days Tx 5, Gerber et al, AJDC 1987): 92%
% Erad (Streptococcus pyogenes [3]; 250 TID, Days Tx 10, Gerber et al, AJDC 1987): 96%
% Erad (Streptococcus pyogenes [3]; 500 TID, Days Tx 0 (spontaneous eradication), Zwart et al. BMJ 2000): 7%
% Erad (Streptococcus pyogenes [3]; 500 TID, Days Tx 3, Zwart et al, BMJ 2000): 41%
% Erad (Streptococcus pyogenes [3]; 500 TID, Days Tx 7, Zwart et al, BMJ 2000): 72%
% Erad (Streptococcus pyogenes [3]; 500 TID, Days Tx 10, Ketek SBA, Norrby et al, Scand J Infect Dis 2001): 89%
% Erad (Streptococcus pyogenes [3]; 600 TID, Days Tx 10, Carbon et al, J Antimicrob Chemother 1995): 86%
% Erad (Streptococcus pyogenes [3]; 750 QD, Days Tx 10, Gerber et al, AJDC 1989): 82%
% Erad (Streptococcus pyogenes [3]; 800 BID, Days Tx 5, Stromberg et al, Scand J Infect Dis 1988): 73%
% Erad (Streptococcus pyogenes [3]; 800 BID, Days Tx 10, Stromberg et al, Scand J Infect Dis 1988): 94%
MIC-90 (Streptococcus pyogenes [4]): 0.03* μg/mL
